Drawing on patent US20240336574A1 (LATIGO BIOTHERAPEUTICS, INC., priority 2021, published 2024), this text covers IC50 for 24 compounds.

Read-outs that look alike come from different tables or passages of the source.

The assay addresses T1, recombinant human NaV1.8 stably transfected HEK cells (Homo sapiens, UniProt Q9Y5Y9).
T1 construct: expressed in transfected cells; host or cells: HEK cells, stably transfected
The assay is described as follows: Compound profiling on NaV1.8, human NaV1.8 cell line, SyncroPatch384PE automated patch clamp assay (Example 102, first set of compounds, Table 16). The format is cell-based. The following applies: human NaV1.8 HEK cells, Table 16 (first set of compounds). The gist of the method:
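Automated whole-cell patch clamp on HEK cells precultured at 30 °C one day before recording; CsF-based internal, 140 mM NaCl external. 10-point curve, 20–0.001 μM final, 0.1% DMSO, 5 min exposure. IC50 for resting (P1, −120 mV hold) and inactivated (P2, after 10 s at −40 mV) block, normalized to 250 μM tetracaine and DMSO.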

The mark [1] stands for this setting: inactivated state block (P2 measurement), read-out: P2IC50.
The mark [2] stands for this setting: resting state block (P1 measurement), read-out: P1IC50.

T1 sequence (Q9Y5Y9 whole entry): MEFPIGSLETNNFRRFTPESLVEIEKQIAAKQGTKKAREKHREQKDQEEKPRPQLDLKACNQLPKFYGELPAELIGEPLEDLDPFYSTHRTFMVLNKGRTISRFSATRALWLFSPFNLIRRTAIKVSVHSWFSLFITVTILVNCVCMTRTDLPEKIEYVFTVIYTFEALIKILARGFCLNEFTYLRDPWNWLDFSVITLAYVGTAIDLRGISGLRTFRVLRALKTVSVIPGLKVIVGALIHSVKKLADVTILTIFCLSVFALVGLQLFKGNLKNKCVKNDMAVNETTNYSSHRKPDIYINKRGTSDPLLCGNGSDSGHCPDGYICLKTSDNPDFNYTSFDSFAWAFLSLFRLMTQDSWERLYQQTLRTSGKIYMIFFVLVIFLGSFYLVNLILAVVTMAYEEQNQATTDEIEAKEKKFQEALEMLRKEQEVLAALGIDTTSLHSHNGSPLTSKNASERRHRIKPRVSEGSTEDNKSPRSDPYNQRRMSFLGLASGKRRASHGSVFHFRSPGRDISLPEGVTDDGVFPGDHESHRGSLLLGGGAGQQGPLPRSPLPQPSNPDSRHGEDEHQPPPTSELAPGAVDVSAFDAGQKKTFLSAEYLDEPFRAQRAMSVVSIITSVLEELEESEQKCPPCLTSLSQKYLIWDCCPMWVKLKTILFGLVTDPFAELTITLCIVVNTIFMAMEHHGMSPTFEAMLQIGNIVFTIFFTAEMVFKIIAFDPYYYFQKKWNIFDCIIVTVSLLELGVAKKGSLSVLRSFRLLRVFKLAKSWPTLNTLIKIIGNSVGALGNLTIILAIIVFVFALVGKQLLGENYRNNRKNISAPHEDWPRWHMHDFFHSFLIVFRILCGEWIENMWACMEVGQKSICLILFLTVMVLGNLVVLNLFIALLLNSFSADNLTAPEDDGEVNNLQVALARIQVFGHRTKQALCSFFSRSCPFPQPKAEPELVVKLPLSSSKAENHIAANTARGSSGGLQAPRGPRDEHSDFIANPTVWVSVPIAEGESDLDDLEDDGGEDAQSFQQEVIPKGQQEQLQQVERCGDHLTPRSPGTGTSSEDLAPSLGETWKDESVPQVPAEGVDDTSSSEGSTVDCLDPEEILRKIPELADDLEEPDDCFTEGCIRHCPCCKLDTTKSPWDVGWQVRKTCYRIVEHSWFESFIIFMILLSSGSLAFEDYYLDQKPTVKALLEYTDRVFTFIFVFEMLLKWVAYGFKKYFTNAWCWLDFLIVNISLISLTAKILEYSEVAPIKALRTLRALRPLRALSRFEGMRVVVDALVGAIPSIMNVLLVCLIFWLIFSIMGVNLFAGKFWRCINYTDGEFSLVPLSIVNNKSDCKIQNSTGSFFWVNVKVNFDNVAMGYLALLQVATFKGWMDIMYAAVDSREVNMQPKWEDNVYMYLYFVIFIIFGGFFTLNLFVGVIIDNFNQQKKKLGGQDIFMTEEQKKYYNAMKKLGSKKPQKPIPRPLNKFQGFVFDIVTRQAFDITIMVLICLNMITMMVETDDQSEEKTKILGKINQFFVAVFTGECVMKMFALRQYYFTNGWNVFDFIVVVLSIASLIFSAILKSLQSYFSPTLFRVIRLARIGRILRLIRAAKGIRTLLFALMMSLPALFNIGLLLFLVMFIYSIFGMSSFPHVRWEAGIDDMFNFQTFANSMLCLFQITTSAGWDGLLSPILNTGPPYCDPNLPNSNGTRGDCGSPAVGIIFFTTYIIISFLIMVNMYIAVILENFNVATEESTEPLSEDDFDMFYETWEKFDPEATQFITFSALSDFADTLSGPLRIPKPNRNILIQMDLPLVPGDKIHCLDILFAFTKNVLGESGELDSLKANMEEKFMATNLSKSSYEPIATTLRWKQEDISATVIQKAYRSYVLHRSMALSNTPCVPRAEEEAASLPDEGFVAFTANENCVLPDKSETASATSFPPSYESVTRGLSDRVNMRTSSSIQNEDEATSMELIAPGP

As to `COc1cc(F)ccc1Oc1nnc(C(F)(F)F)c(OC)c1C(=O)Nc1cccc([S@@](C)(=N)=O)c1` [Compound 1517, (S)-3-(4-fluoro-2-methoxyphenoxy)-5-methoxy-N-(3-(S-methylsulfonimidoyl)phenyl)-6-(trifluoromethyl)pyridazine-4-carboxamide], the IC50 is, setting by setting: under setting [1], 20 to 40 nM; under setting [2], at most 20 nM.

As for `CCc1c(C(F)(F)F)nnc(Oc2ccc(F)cc2OC)c1C(=O)Nc1cccc([S@@](C)(=N)=O)c1` [Compound 1518, (S)-5-ethyl-3-(4-fluoro-2-methoxyphenoxy)-N-(3-(S-methylsulfonimidoyl)phenyl)-6-(trifluoromethyl)pyridazine-4-carboxamide], the IC50 reads like this: under setting [1], at most 20 nM; under setting [2], at most 20 nM.

In the case of `Cc1cc(F)ccc1Oc1nnc(C(F)(F)F)c(C2CC2)c1C(=O)Nc1cccc([S@@](C)(=N)=O)c1` [Compound 1519, (S)-5-cyclopropyl-3-(4-fluoro-2-methylphenoxy)-N-(3-(S-methylsulfonimidoyl)phenyl)-6-(trifluoromethyl)pyridazine-4-carboxamide], the IC50 was 20 to 40 nM under setting [1] and 20 to 40 nM under setting [2].

For the compound `Cc1cc(F)ccc1Oc1nnc(C(F)(F)F)c(-c2ccccc2)c1C(=O)Nc1cccc([S@@](C)(=N)=O)c1` [Compound 1520, (S)-3-(4-fluoro-2-methylphenoxy)-N-(3-(S-methylsulfonimidoyl)phenyl)-5-phenyl-6-(trifluoromethyl)pyridazine-4-carboxamide], the IC50 was in the range of 200 to 500 nM under setting [1] and 200 to 500 nM under setting [2].

With `Cc1cc(F)ccc1Oc1nnc(C(F)(F)F)c(-c2cnn(C)c2)c1C(=O)Nc1cccc([S@@](C)(=N)=O)c1` [Compound 1521, (S)-3-(4-fluoro-2-methylphenoxy)-5-(1-methyl-1H-pyrazol-4-yl)-N-(3-(S-methylsulfonimidoyl)phenyl)-6-(trifluoromethyl)pyridazine-4-carboxamide], the IC50 by setting is: under setting [1], 200 to 500 nM; under setting [2], 200 to 500 nM.

For `Cc1cc(F)ccc1Oc1nnc(C(F)(F)F)c(NC2CC2)c1C(=O)Nc1cccc([S@@](C)(=N)=O)c1` [Compound 1522, (S)-5-(cyclopropylamino)-3-(4-fluoro-2-methylphenoxy)-N-(3-(S-methylsulfonimidoyl)phenyl)-6-(trifluoromethyl)pyridazine-4-carboxamide], the IC50 by setting is: under setting [1], 200 to 500 nM; under setting [2], 200 to 500 nM.

For `Cc1cc(F)ccc1Oc1nnc(C(F)(F)F)c(NC2CNC2)c1C(=O)Nc1cccc([S@@](C)(=N)=O)c1` [Compound 1523, (S)-5-(azetidin-3-ylamino)-3-(4-fluoro-2-methylphenoxy)-N-(3-(S-methylsulfonimidoyl)phenyl)-6-(trifluoromethyl)pyridazine-4-carboxamide], the IC50 reads like this: under setting [1], 200 to 500 nM; under setting [2], 200 to 500 nM.

With `Cc1cc(F)ccc1Oc1nnc(C(F)(F)F)c(N2CCOCC2)c1C(=O)Nc1cccc([S@@](C)(=N)=O)c1` [Compound 1524, (S)-3-(4-fluoro-2-methylphenoxy)-N-(3-(S-methylsulfonimidoyl)phenyl)-5-morpholino-6-(trifluoromethyl)pyridazine-4-carboxamide], the IC50 runs as follows: under setting [1], 200 to 500 nM; under setting [2], 200 to 500 nM.

Turning to `Cc1cc(C#N)ccc1Oc1nnc(C(F)(F)F)c(C)c1C(=O)Nc1cccc([S@@](C)(=N)=O)c1` [Compound 1525, 3-(4-cyano-2-methylphenoxy)-N-{3-[(S)-imino(methyl)oxo-λ^6-sulfanyl]phenyl}-5-methyl-6-(trifluoromethyl)pyridazine-4-carboxamide], the IC50 by setting is: under setting [1], at most 20 nM; under setting [2], at most 20 nM.

Turning to `Cc1cc(C#N)ccc1Oc1nnc(C(F)(F)F)c(C)c1C(=O)Nc1cccc([S@](C)(=N)=O)c1` [Compound 1526, 3-(4-cyano-2-methylphenoxy)-N-{3-[(R)-imino(methyl)oxo-λ^6-sulfanyl]phenyl}-5-methyl-6-(trifluoromethyl)pyridazine-4-carboxamide], the IC50 was at most 20 nM under setting [1] and at most 20 nM under setting [2].

Regarding `COc1cc(C#N)ccc1Oc1nnc(-c2ccc(C#N)cc2)c(C)c1C(=O)Nc1ccc[n+]([O-])c1` [Compound 1527, 3-(4-cyano-2-methoxy-phenoxy)-6-(4-cyanophenyl)-5-methyl-N-(1-oxidopyridin-1-ium-3-yl)pyridazine-4-carboxamide], the IC50 under setting [1] lay within 20 to 40 nM and the IC50 under setting [2] lay within 20 to 40 nM.

As for `COc1cc(C#N)ccc1Oc1nnc(C2CC2(F)F)c(C)c1C(=O)Nc1cccc([S@@](C)(=N)=O)c1` (stereo partly drawn) [Compound 1528, 3-(4-cyano-2-methoxyphenoxy)-6-(2,2-difluorocyclopropyl)-N-{3-[(S)-imino(methyl)oxo-λ^6-sulfanyl]phenyl}-5-methylpyridazine-4-carboxamide], the IC50 was 40 to 200 nM under setting [1] and 40 to 200 nM under setting [2].

`COc1cc(C#N)ccc1Oc1nnc(-c2ccc(C)cc2)c(C)c1C(=O)Nc1cccc([S@](C)(=N)=O)c1` [Compound 1529, 3-(4-cyano-2-methoxyphenoxy)-N-{3-[(R)-imino(methyl)oxo-λ6-sulfanyl]phenyl}-5-methyl-6-(4-methylphenyl)pyridazine-4-carboxamide]: the IC50 runs as follows: under setting [1], at most 20 nM; under setting [2], at most 20 nM.

Regarding `COc1cc(C#N)ccc1Oc1nnc(-c2ccc(C)cc2)c(C)c1C(=O)Nc1cccc([S@@](C)(=N)=O)c1` [Compound 1530, 3-(4-cyano-2-methoxyphenoxy)-N-{3-[(S)-imino(methyl)oxo-λ^6-sulfanyl]phenyl}-5-methyl-6-(4-methylphenyl)pyridazine-4-carboxamide], the IC50 under setting [1] lay in the range of 40 to 200 nM and the IC50 under setting [2] lay within 40 to 200 nM.

With `COc1cc(C#N)ccc1Oc1nnc(-c2ccc(C#N)cc2)c(C)c1C(=O)Nc1cccc([S@](C)(=N)=O)c1` [Compound 1531, (R)-3-(4-cyano-2-methoxyphenoxy)-6-(4-cyanophenyl)-5-methyl-N-(3-(S-methylsulfonimidoyl)phenyl)pyridazine-4-carboxamide], the IC50 is 40 to 200 nM under setting [1] and 40 to 200 nM under setting [2].

Turning to `COc1cc(C#N)ccc1Oc1nnc(-c2ccc(C#N)cc2)c(C)c1C(=O)Nc1cccc([S@@](C)(=N)=O)c1` [Compound 1532, 3-(4-cyano-2-methoxyphenoxy)-6-(4-cyanophenyl)-N-{3-[(S)-imino(methyl)oxo-λ^6-sulfanyl]phenyl}-5-methylpyridazine-4-carboxamide], the IC50 runs as follows: under setting [1], 40 to 200 nM; under setting [2], 40 to 200 nM.

Consider `COc1cc(C#N)ccc1Oc1nnc(-c2ccc(C(F)F)cc2)c(C)c1C(=O)Nc1cccc([S@@](C)(=N)=O)c1` [Compound 1533, 3-(4-cyano-2-methoxyphenoxy)-6-[4-(difluoromethyl)phenyl]-N-{3-[(S)-imino(methyl)oxo-λ^6-sulfanyl]phenyl}-5-methylpyridazine-4-carboxamide], for which the IC50 lay in the range of 20 to 40 nM under setting [1] and 20 to 40 nM under setting [2].

In the case of `COc1cc(C#N)ccc1Oc1nnc(-c2ccc(C(F)F)cc2)c(C)c1C(=O)Nc1cccc([S@](C)(=N)=O)c1` [Compound 1534, 3-(4-cyano-2-methoxyphenoxy)-6-[4-(difluoromethyl)phenyl]-N-{3-[(R)-imino(methyl)oxo-λ^6-sulfanyl]phenyl}-5-methylpyridazine-4-carboxamide], the IC50 was 20 to 40 nM under setting [1] and 20 to 40 nM under setting [2].

`COc1ccc(-c2nnc(Oc3ccc(C#N)cc3OC)c(C(=O)Nc3cccc([S@](C)(=N)=O)c3)c2C)cc1` [Compound 1535, 3-(4-cyano-2-methoxyphenoxy)-N-{3-[(R)-imino(methyl)oxo-λ^6-sulfanyl]phenyl}-6-(4-methoxyphenyl)-5-methylpyridazine-4-carboxamide]: the IC50 lay within 20 to 40 nM under setting [1] and 20 to 40 nM under setting [2].

For the compound `COc1ccc(-c2nnc(Oc3ccc(C#N)cc3OC)c(C(=O)Nc3cccc([S@@](C)(=N)=O)c3)c2C)cc1` [Compound 1536, 3-(4-cyano-2-methoxyphenoxy)-N-{3-[(S)-imino(methyl)oxo-λ^6-sulfanyl]phenyl}-6-(4-methoxyphenyl)-5-methylpyridazine-4-carboxamide], the IC50 is 40 to 200 nM under setting [1] and 40 to 200 nM under setting [2].

On to `COc1cc(C#N)ccc1Oc1nnc(-c2ccccc2F)c(C)c1C(=O)Nc1cccc([S@](C)(=N)=O)c1` [Compound 1537, 3-(4-cyano-2-methoxyphenoxy)-6-(2-fluorophenyl)-N-{3-[(R)-imino(methyl)oxo-λ^6-sulfanyl]phenyl}-5-methylpyridazine-4-carboxamide], for which the IC50 is 20 to 40 nM under setting [1] and 20 to 40 nM under setting [2].

As to `COc1cc(C#N)ccc1Oc1nnc(C(F)(F)F)c(C)c1C(=O)Nc1cnc(C(N)=O)s1` [Compound 1538, 5-[[3-(4-cyano-2-methoxy-phenoxy)-5-methyl-6-(trifluoromethyl)pyridazine-4-carbonyl]amino]thiazole-2-carboxamide], the IC50 under setting [1] fell in the range of 40 to 200 nM and the IC50 under setting [2] was 40 to 200 nM.

Consider `COc1cc(C#N)ccc1Oc1nnc(C(F)(F)F)c(C)c1C(=O)Nc1ccc(C(N)=O)nc1` [Compound 1539, N-(6-carbamoyl-3-pyridyl)-3-(4-cyano-2-methoxy-phenoxy)-5-methyl-6-(trifluoromethyl)pyridazine-4-carboxamide], for which the IC50 lay within 20 to 40 nM under setting [1] and 40 to 200 nM under setting [2].

Turning to `COc1cc(C#N)ccc1Oc1nnc(C(F)(F)F)c(C)c1C(=O)Nc1cncc(C#N)c1` [Compound 1540, 3-(4-cyano-2-methoxy-phenoxy)-N-(5-cyano-3-pyridyl)-5-methyl-6-(trifluoromethyl)pyridazine-4-carboxamide], the IC50 lay in the range of 40 to 200 nM under setting [1] and 40 to 200 nM under setting [2].
